Experimental data taken from patent US7211576B2, “Diaminothiazoles” (Hoffmann-La Roche Inc., priority 2004, dated 2007).

Experiments:
[1] = system: HCT116, a colorectal carcinoma cell line; test: Tetrazolium dye (MTT) proliferation assay; type: cell-based; conditions: Homo sapiens, HCT-116; HCT116 cells, inhibition of cell proliferation
Procedure, shortened: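 Cells in McCoy's 5A with 10% FCS, seeded for log growth, dosed next day in duplicate (0.3% DMSO final) and incubated to time points set by growth curves at 37° C. MTT at 1 mg/ml for 2.5–3 h, formazan in ethanol, A570 minus 650 nm reference. IC50 by linear regression of log concentration versus % inhibition.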

human cyclin B-CDK1 = human cyclin B-CDK1 (Homo sapiens, UniProt P06493); test: FlashPlate kinase assay, cyclin B-CDK1; type: biochemical; conditions: Rb protein substrate, 1 μM ATP, 33P-ATP, 30 minutes room temperature
Sequence of human cyclin B-CDK1 (P06493 whole entry): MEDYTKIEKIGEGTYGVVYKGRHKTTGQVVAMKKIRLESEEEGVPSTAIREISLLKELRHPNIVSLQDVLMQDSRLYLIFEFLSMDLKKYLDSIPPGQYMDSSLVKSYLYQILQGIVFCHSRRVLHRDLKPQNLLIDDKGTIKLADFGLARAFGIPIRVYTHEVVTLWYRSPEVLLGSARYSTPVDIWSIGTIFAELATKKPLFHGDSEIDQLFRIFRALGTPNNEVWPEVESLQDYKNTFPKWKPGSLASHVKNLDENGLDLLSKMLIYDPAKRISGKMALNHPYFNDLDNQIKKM
Sequence of human cyclin B-CDK1 (P14635 whole entry partner): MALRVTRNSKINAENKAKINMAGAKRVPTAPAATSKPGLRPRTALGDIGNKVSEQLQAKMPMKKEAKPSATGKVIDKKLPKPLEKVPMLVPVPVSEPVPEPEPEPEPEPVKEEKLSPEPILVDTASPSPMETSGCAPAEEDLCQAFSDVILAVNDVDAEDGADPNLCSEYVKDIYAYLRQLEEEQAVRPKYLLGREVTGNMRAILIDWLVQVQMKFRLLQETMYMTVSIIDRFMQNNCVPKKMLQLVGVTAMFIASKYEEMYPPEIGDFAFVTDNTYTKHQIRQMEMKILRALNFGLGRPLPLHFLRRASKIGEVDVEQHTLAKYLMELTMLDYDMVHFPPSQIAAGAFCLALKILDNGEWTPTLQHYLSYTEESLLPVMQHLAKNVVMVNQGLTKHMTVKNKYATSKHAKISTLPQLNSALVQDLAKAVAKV

human cyclin D1-CDK4 = human cyclin D1-CDK4 (Homo sapiens, UniProt P11802); test: FlashPlate kinase assay, cyclin D1-CDK4; type: biochemical; conditions: Rb protein substrate, 1 μM ATP, 33P-ATP, 30 minutes room temperature; read-out: CDK4 IC50
Sequence of human cyclin D1-CDK4 (P11802 whole entry): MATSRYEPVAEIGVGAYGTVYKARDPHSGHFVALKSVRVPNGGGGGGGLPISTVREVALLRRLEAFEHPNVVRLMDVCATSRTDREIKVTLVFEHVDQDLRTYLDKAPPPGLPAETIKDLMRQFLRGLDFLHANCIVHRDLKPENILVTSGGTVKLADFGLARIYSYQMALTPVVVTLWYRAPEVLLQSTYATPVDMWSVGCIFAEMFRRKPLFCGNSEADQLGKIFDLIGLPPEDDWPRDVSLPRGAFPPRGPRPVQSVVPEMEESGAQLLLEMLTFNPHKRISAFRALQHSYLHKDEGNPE
Sequence of human cyclin D1-CDK4 (P24385 whole entry partner): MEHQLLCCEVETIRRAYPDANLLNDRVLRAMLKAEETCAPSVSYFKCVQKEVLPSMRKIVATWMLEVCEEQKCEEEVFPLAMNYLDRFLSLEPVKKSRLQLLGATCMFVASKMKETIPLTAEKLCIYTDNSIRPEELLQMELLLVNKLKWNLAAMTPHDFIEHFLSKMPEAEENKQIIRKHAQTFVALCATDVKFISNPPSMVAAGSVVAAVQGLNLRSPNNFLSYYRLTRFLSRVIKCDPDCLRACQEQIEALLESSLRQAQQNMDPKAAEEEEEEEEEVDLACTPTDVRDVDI

human cyclin E-CDK2 = human cyclin E-CDK2 (Homo sapiens, UniProt P24941); test: FlashPlate kinase assay, cyclin E-CDK2; type: biochemical; conditions: Rb protein substrate, 1 μM ATP, 33P-ATP, 30 minutes room temperature

| IC50 [1] [nM] | IC50 (human cyclin B-CDK1) [nM] | IC50 (human cyclin D1-CDK4) [nM] | IC50 (human cyclin E-CDK2) [nM] | Compound |
| --- | --- | --- | --- | --- |
| 18 | 740 | 1090 | 120 | Nc1nc(Nc2ccc(N3CCC(N4CCCC(O)C4)CC3)cc2)sc1C(=O)c1cccc(F)c1 (centres unmarked) [Example 35, {4-Amino-2-[4-(3-hydroxy-[1,4′]bipiperidinyl-1′-yl)-phenylamino]-thiazol-5-yl}-(3-fluoro-phenyl)-methanone] |
| 9 | 1730 | 3630 | 3000 | COc1ccc(C(=O)c2sc(Nc3ccc(N4CCC(N5CCCC(O)C5)CC4)cc3)nc2N)cc1F (centres unmarked) [Example 36, {4-Amino-2-[4-(3-hydroxy-[1,4′]bipiperidinyl-1′-yl)-phenylamino]-thiazol-5-yl}-(3-fluoro-4-methoxy-phenyl)-methanone] |
